IC50 data for 22 molecules are collected here from US12187742B2 (XRAD Therapeutics, Inc., priority 2018, dated 2025).

Each structure is given as a SMILES string. Structures can show the parent of a compound that is named as a salt.

In one experiment the target is DNA-PK (Homo sapiens (Human), UniProt P78527). The experiment in a line: DNA-PK Enzyme-Linked Immunosorbent Assay (phosphorylation of GST-p53 (1-101) peptide). The conditions noted are these: ELISA. The experiment is classed as biochemical. The method in brief:
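ELISA with plate-bound GST-p53 (1-101) phosphorylated by DNA-PK (0.1 μg/mL final) with 20 μM ATP for 1 h at 25 °C. Compounds tested over 10 3-fold doses from 100 nM top final. Phospho-p53 Ser15 detected by antibody, HRP and TMB, absorbance at 450 nm.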
(In general: ELISA stands for enzyme-linked immunosorbent assay.)

The next experiment has as its target ATM (Homo sapiens (Human), UniProt Q13315). The experiment in a line: ATM in Cell Western Assay (pKAP1 in etoposide-treated MCF-7 cells). The experiment is classed as cell-based. The method in brief: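 Cells received compounds in a 10-dose, 3-fold series from a 1 μM final top concentration, then 100 μM etoposide, for 1 hr at 37° C. They were then fixed with paraformaldehyde and permeabilized with 0.1% Triton X-100. After immunostaining, plates were scanned on an infrared imager.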

[1] abbreviates: MCF-7 cells, etoposide 100 μM, 1 hr, pKAP1 readout.
Where [2] appears, read: pKAP1 in etoposide-treated MCF-7 cells.

Sequence of ATM (Q13315 whole entry): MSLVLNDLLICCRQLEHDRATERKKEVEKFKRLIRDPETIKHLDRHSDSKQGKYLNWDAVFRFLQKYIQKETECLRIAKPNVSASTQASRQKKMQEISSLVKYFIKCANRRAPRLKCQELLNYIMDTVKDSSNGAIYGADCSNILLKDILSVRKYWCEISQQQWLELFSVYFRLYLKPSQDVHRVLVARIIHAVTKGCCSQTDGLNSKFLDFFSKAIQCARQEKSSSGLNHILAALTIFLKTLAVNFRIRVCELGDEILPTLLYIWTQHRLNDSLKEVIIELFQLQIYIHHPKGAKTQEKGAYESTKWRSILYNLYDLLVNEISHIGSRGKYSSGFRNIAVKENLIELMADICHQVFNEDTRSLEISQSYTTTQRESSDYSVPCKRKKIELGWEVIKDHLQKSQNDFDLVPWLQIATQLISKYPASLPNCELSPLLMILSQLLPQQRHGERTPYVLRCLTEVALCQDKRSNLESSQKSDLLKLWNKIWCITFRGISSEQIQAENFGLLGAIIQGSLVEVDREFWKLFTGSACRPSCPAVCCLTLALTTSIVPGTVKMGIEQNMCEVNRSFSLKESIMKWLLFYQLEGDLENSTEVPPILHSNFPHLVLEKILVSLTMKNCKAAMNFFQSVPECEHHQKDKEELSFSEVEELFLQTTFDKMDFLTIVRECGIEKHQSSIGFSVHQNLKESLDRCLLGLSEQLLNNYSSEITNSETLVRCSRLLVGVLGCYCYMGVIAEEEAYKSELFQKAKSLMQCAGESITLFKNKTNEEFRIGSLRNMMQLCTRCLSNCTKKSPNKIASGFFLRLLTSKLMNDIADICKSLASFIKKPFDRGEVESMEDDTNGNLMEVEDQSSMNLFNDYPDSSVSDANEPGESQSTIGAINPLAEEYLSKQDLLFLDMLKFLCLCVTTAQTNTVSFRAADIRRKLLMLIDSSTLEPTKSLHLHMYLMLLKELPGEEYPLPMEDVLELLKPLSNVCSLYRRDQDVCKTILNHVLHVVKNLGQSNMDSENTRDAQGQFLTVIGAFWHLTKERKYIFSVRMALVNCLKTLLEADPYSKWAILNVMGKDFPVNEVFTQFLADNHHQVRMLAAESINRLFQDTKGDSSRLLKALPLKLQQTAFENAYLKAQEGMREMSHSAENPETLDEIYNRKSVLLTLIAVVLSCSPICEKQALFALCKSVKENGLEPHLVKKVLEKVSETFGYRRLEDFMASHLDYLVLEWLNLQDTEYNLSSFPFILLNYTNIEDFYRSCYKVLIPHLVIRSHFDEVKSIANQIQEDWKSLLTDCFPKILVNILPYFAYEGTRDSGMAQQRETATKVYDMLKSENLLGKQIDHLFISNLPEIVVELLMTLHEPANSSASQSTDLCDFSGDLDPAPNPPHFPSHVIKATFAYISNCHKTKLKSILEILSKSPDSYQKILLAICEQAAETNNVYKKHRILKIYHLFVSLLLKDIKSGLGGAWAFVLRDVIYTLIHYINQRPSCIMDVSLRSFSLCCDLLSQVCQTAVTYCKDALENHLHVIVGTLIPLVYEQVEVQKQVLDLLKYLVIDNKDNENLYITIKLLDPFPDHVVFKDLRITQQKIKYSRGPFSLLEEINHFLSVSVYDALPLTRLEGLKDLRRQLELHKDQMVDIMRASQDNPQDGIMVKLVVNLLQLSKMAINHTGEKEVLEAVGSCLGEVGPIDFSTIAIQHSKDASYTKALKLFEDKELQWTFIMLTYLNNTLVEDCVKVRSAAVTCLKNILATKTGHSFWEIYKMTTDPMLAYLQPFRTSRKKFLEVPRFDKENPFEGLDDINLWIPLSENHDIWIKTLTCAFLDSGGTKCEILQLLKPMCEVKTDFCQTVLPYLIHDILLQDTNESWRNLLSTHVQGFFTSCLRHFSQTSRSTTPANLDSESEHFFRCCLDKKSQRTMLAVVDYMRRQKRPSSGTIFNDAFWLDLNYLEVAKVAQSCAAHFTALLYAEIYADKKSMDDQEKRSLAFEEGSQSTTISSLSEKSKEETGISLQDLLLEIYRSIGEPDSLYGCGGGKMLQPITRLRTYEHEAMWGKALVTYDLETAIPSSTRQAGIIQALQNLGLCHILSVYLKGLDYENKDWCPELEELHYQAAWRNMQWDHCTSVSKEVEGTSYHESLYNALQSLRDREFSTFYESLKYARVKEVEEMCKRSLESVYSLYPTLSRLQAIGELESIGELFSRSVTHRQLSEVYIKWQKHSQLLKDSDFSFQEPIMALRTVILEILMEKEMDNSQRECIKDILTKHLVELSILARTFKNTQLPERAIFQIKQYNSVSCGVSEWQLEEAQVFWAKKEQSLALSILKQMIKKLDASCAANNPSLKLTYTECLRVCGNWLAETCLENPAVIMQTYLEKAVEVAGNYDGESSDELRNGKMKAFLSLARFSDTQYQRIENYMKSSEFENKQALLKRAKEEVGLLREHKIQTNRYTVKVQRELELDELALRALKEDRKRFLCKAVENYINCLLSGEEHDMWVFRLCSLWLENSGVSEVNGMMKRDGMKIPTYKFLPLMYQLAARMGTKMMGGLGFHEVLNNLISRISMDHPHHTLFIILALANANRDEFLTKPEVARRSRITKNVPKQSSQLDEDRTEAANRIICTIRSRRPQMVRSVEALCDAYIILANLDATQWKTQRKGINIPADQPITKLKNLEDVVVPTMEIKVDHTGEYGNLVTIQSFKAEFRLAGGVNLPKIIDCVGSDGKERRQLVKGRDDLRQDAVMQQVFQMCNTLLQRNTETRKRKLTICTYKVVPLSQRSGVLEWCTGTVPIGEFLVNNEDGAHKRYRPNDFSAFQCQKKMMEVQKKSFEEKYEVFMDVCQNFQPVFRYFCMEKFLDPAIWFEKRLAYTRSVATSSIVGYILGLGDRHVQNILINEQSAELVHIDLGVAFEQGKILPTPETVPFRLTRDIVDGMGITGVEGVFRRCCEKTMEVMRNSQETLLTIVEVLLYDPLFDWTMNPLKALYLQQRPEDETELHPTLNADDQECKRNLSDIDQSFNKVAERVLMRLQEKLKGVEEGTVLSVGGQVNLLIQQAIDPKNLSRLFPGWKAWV

Consider `CN(C)CC1CCN(c2ncc(-c3ccc4ncc5c(c4c3)C3(CC3)C(=O)N5C)cc2NS(=O)(=O)C2CC2)CC1` [Example 115], for which the IC50 (as a rule, the concentration at which inhibition is half-maximal) is 1 to 100 nM against DNA-PK (ATP 20 μM) and 0.5 to 1 nM against ATM (setting [1]).

For `CC(C)NCCOc1ncc(-c2cc3c(cc2F)ncc2c3[C@]3(C[C@@H](c4ccc(Cl)cc4)C3)C(=O)N2C)cc1NS(C)(=O)=O` [Example 417, trans-N-(5-(3-(4-Chlorophenyl)-7′ fluoro-3′-methyl-2′-oxo-2′,3′-dihydrospiro[cyclobutane-1,1′-pyrrolo[2,3-c]quinolin]-8′-yl)-2-(2-(isopropylamino)ethoxy)pyridin-3-yl)methanesulfonamide], the IC50 against DNA-PK (20 μM ATP) was 1 to 100 nM; at ATM (setting [2]) it was greater than 100 nM.

Consider `CN(C)CCCOc1ncc(-c2ccc3ncc4c(c3c2)C2(CCC2)C(=O)N4C)cc1NS(=O)(=O)c1cc(F)cc(F)c1` [Example 153, N-(2-(3-(Dimethylamino)propoxy)-5-(3′-methyl-2′-oxo-23′-dihydrospiro[cyclobutane-1,1′-pyrrolo[2,3-c]quinolin]-8′-yl)pyridin-3-yl)-3,5-difluorobenzenesulfonamide], for which the half-inhibitory concentration (IC50) on DNA-PK (ATP 20 μM) lay within 0.5 to 1 nM; on ATM (setting [1]), 1 to 100 nM.

Consider `CN(C)CCCOc1ncc(-c2ccc3ncc4c(c3c2)C2(CC2)C(=O)N4C)cc1NS(=O)(=O)c1ccccc1OC(F)(F)F` [Example 116], for which the IC50 against DNA-PK (ATP 20 μM) and on ATM (setting [1]) was 0.5 to 1 nM throughout.

With `CN1C(=O)C2(CC2)c2c1cnc1ccc(-c3cnc(OCCCN4CCCC4)c(NS(=O)(=O)c4ccccc4)c3)cc21` [Example 58, N-(5-(3′-Methyl-2′-oxo-2′,3′-dihydrospiro[cyclopropane-1,1′-pyrrolo[2,3-c]quinolin]-8′-yl)-2-(3-(pyrrolidin-1-yl)propoxy)pyridin-3-yl)benzenesulfonamide], the IC50 against DNA-PK (ATP 20 μM) and against ATM (setting [1]) was less than 0.5 nM throughout.

Regarding `CN(C)CCCOc1ncc(-c2ccc3c(c2)c2c(c[n+]3[O-])N(C)C(=O)C23CC3)cc1NS(=O)(=O)c1ccccc1` [Example 123, 8′-(6-(3-(Dimethylamino)propoxy)-5-(phenylsulfonamido)pyridin-3-yl)-3′-methyl-2′-oxo-2′,3′-dihydrospiro[cyclopropane-1,1′-pyrrolo[2,3-c]quinoline]5′-oxide], the IC50 at DNA-PK (ATP 20 μM) and at ATM (setting [1]) was 1 to 100 nM each time.

Take `CCN(C)C1CN(c2ncc(-c3ccc4ncc5c(c4c3)C3(CCC3)C(=O)N5C)cc2NS(C)(=O)=O)C1` [Example 326, N-(2-(3-(Ethyl(methyl)amino)azetidin-1-yl)-5-(3′-methyl-2′-oxo-2′,3′-dihydrospiro[cyclobutane-1,1′-pyrrolo[2,3-c]quinolin]-8′-yl)pyridin-3-yl)methanesulfonamide hydrochloride]: the figures for the IC50 on DNA-PK (ATP 20 μM) and at ATM (setting [1]) were 0.5 to 1 nM and 1 to 100 nM, respectively.

On to `CCS(=O)(=O)Nc1cc(-c2cc3c4c(cnc3cc2F)N(C)C(=O)C42CCC2)cnc1N1CC(N(C)C)C1` [Example 343, N-(2-(3-(Dimethylamino)azetidin-1-yl)-5-(7′-fluoro-3′-methyl-2′-oxo-2′,3′-dihydrospiro[cyclobutane-1,1′-pyrrolo[2,3-c]quinolin]-8′-yl)pyridin-3-yl)ethanesulfonamide formate], for which the half-maximal inhibitory concentration (IC50) at DNA-PK (20 μM ATP) and on ATM (setting [2]) was 1 to 100 nM each time.

On to `CC(C)NCCOc1ncc(-c2cc3c4c(cnc3cc2F)N(C)C(=O)C42CCC2)cc1NS(=O)(=O)N1CC(F)C1` [Example 371, 3-Fluoro-N-(5-(7′-fluoro-3′-methyl-2′-oxo-2′,3′-dihydrospiro[cyclobutane-1,1′-pyrrolo[2,3-c]quinolin]-8′-yl)-2-(2-(isopropylamino)ethoxy)pyridin-3-yl)azetidine-1-sulfonamide], for which the IC50 on DNA-PK (20 μM ATP) and on ATM (setting [2]) was 1 to 100 nM in each case.

In the case of `CN1C(=O)C2(CC2)c2c1cnc1ccc(-c3cnc4ncccc4c3)cc21` [Example 62, 3′-Methyl-8′-(1,8-naphthyridin-3-yl)spiro[cyclopropane-1,1′-pyrrolo[2,3-c]quinolin]-2′(3′-H)-one], the IC50 at DNA-PK (ATP 20 μM) and against ATM (setting [1]) was 1 to 100 nM each time.

Take `Cc1cc(S(=O)(=O)Nc2cc(-c3ccc4ncc5c(c4c3)C3(CCC3)C(=O)N5C)cnc2N2CCC(N(C)C)CC2)sn1` [Example 233, N-(2-(4-(Dimethylamino)piperidin-1-yl)-5-(3′-methyl-2′-oxo-2′,3′-dihydrospiro[cyclobutane-1,1′-pyrrolo[2,3-c]quinolin]-8′-yl)pyridin-3-yl)-3-methylisothiazole-5-sulfonamide]: the values for the IC50 against DNA-PK (ATP 20 μM) and against ATM (setting [1]) were 0.5 to 1 nM and 1 to 100 nM, respectively.

For `COCCN(CCOC)S(=O)(=O)Nc1cc(-c2ccc3ncc4c(c3c2)C2(CCC2)C(=O)N4C)cnc1OCCCN(C)C` [Example 181, 8′-(5-{[Bis(2-methoxyethyl)sulfamoyl]amino}-6-[3-(dimethylamino)propoxy]pyridine-3-yl)-3′-methyl-2′,3′-dihydrospiro [cyclobutane-1,1′-pyrrolo[2,3-c]quinoline]-2′-one], the IC50 at DNA-PK (ATP 20 μM) and at ATM (setting [1]) was 1 to 100 nM throughout.

In the case of `CC(C)NCCOc1ncc(-c2cc3c4c(cnc3cc2F)N(C)C(=O)C42CCC2)cc1NS(=O)(=O)N1CCC1` [Example 370, N-(5-(7′-Fluoro-3′-methyl-2′-oxo-2′,3′-dihydrospiro [cyclobutane-1,1′-pyrrolo[2,3-c]quinolin]-8′-yl)-2-(2-(isopropylamino)ethoxy)pyridin-3-yl)azetidine-1-sulfonamide], the IC50 at DNA-PK (20 μM ATP) and against ATM (setting [2]) was 1 to 100 nM in each case.

Turning to `CC1CCC12C(=O)N(C)c1cnc3ccc(-c4cnc(N5CC(N(C)C)C5)c(NS(C)(=O)=O)c4)cc3c12` (centres unmarked) [Example 325, N-(5-(2,3′-Dimethyl-2′-oxo-2′,3′-dihydrospiro[cyclobutane-1,1′-pyrrolo[2,3-c]quinolin]-8′-yl)-2-(3-(dimethylamino)azetidin-1-yl)pyridin-3-yl)methanesulfonamideformate], the IC50 on DNA-PK (ATP 20 μM) and at ATM (setting [1]) was 1 to 100 nM throughout.

For the molecule `CN1CC2CN(c3ncc(-c4ccc5ncc6c(c5c4)C4(CCC4)C(=O)N6C)cc3NS(C)(=O)=O)CC2C1` (centres unmarked) [Example 350, N-(5-(3′-Methyl-2′-oxo-2′,3′-dihydrospiro[cyclobutane-1,1′-pyrrolo[2,3-c]quinolin]-8′-yl)-2-(5-methylhexahydropyrrolo[3,4-c]pyrrol-2(1H)-yl)pyridin-3-yl)methanesulfonamide formate], the IC50 on DNA-PK (20 μM ATP) and against ATM (setting [2]) was 1 to 100 nM throughout.

As to `CO[C@H]1C[C@]2(C1)C(=O)N(C)c1cnc3cc(F)c(-c4cnc(OCCNC(C)C)c(NS(C)(=O)=O)c4)cc3c12` [Example 385, cis-N-(5-(7′-Fluoro-3-methoxy-3′-methyl-2′-oxo-2′,3′-dihydrospiro[cyclobutane-1,1′-pyrrolo[2,3-c]quinolin]-8′-yl)-2-(2-(isopropylamino)ethoxy)pyridin-3-yl)methanesulfonamide], the IC50 was less than 0.5 nM against DNA-PK (20 μM ATP) and 1 to 100 nM against ATM (setting [2]).

For `CN1CCCC(COc2ncc(-c3ccc4ncc5c(c4c3)C3(CC3)C(=O)N5C)cc2NS(=O)(=O)c2ccccc2)C1` (centres unmarked) [Example 84, N-(5-(3′-Methyl-2′-oxo-2′,3′-dihydrospiro[cyclopropane-1,1′-pyrrolo[2,3-c]quinolin]-8′-yl)-2-((1-methylpiperidin-3-yl)methoxy)pyridin-3-yl)benzenesulfonamide], the IC50 against DNA-PK (ATP 20 μM) and on ATM (setting [1]) was 1 to 100 nM in each case.

Consider `Cc1ccc(S(=O)(=O)Nc2cc(-c3ccc4ncc5c(c4c3)C3(CCC3)C(=O)N5C)cnc2N2CCN(C)CC2)cn1` [Example 201, 6-Methyl-N-(5-(3′-methyl-2′-oxo-2′,3′-dihydrospiro[cyclobutane-1,1′-pyrrolo[2,3-c]quinolin]-8′-yl)-2-(4-methylpiperazin-1-yl)pyridin-3-yl)pyridine-3-sulfonamide], for which the IC50 on DNA-PK (ATP 20 μM) was less than 0.5 nM; against ATM (setting [1]), 1 to 100 nM.

As to `COc1cc2ncc3c(c2cc1-c1cnc(OCCCN(C)C)c(NS(=O)(=O)c2ccccc2)c1)C1(CC1)C(=O)N3C` [Example 82, N-(2-(3-(Dimethylamino)propoxy)-5-(7-methoxy-3′-methyl-2′-oxo-2′,3′-dihydrospiro[cyclopropane-1,1′-pyrrolo[2,3-c]quinolin]-8′-yl)pyridin-3-yl) benzenesulfonamide], the results for the half-inhibitory concentration (IC50) on DNA-PK (ATP 20 μM) and against ATM (setting [1]) were 1 to 100 nM and 0.5 to 1 nM, respectively.

As for `CN1C(=O)C2(CC2)c2c1cnc1ccc(-c3cnc(OCCC4CCCCN4C)c(NS(=O)(=O)c4ccccc4)c3)cc21` (centres unmarked) [Example 81, N-(5-(3′-Methyl-2′-oxo-2′,3′-dihydrospiro [cyclopropane-1,1′-pyrrolo[2,3-c]quinolin]-8′-yl)-2-(2-(1-methylpiperidin-2-yl)ethoxy)pyridin-3-yl)benzenesulfonamide], the IC50 against DNA-PK (ATP 20 μM) and against ATM (setting [1]) was 1 to 100 nM in each case.

For `Cc1ccc(S(=O)(=O)Nc2cc(-c3ccc4ncc5c(c4c3)C3(CCC3)C(=O)N5C)cnc2OCCCN2CCCCC2)cn1` [Example 142, 6-Methyl-N-(5-(3 methyl-2′-oxo-2′,3′-dihydrospiro[cyclobulane-1,1′-pyrrolo[2,3-c]quinolin]-8′-yl)-2-(3-(piperidin-1-yl)propoxy)pyridin-3-yl)pyridine-3-sulfonamide hydrochloride], the IC50 at DNA-PK (ATP 20 μM) is less than 0.5 nM; at ATM (setting [1]) it was 1 to 100 nM.

On to `CCS(=O)(=O)Nc1cc(-c2ccc3ncc4c(c3c2)C2(CC2)C(=O)N4C)cnc1OCCCN(C)C` [Example 61, N-(2-(3-(Dimethylamino)propoxy)-5-(3′-methyl-2′-oxo-2′,3′-dihydrospiro [cyclopropane-1,1′-pyrrolo[2,3-c]quinolin]-8′-yl)pyridin-3-ylethanesulfonamide hydrochloride], for which the IC50 at DNA-PK (ATP 20 μM) and against ATM (setting [1]) was 1 to 100 nM throughout.
